Reference: patent US10519111B2, “UV absorbing compounds, compositions comprising same and uses thereof” (CORAL SUNSCREEN PTY LTD, priority 2013, dated 2019)
Several values for one entry are separate records, joined by “and”; a condition that tells them apart may be missing. Identical values can stand only once.

Test: UV absorption properties (λmax, molar extinction coefficient ε, efficiency E 1%, 1 cm)
Assay type: physicochemical
[1] = values in order of the λmax values
[2] = Table 1, values in order of the λmax values
[3] = Table 2, values in order of the λmax values
[4] = Table 6A, N-isobutyl-C3-benzoyl compounds
[5] = Table 7, values in order of the λmax values

SMILES | UV λmax | ε (molar extinction coefficient) [1] | further results
CC(C)CN1C=C(C(=O)CCC(=O)O)C(C)(C)CC1 [drawing 171] |  |  | λmax (Table 13A, miscellaneous compounds): 308 nm
CC(C)(C)c1ccc(C(=O)CC(=O)c2ccc(OCc3ccc(Br)cc3)cc2)cc1 [Compound 9, 1-(4-((4-bromobenzyl)oxy)phenyl)-3-(4-(tert-butyl)phenyl)propane-1,3-dione] | 357 nm | 35500 M⁻¹ cm⁻¹ | 
CN(C)c1ccc(N2C=C(C(=O)C(F)(F)F)C(C)(C)CC2)cc1 [Compound 196, 1-(1-(4-(dimethylamino)phenyl)-4,4-dimethyl-1,4,5,6-tetrahydropyridin-3-yl)-2,2,2-trifluoroethanone] | 354 nm | 32744 M⁻¹ cm⁻¹ | 
CC1(C)CCN(C(C)(C)C)C=C1C(=O)Nc1ccc(NC(=O)C2=CN(C(C)(C)C)CCC2(C)C)cc1 [Compound 187, N,N′-(1,4-phenylene)bis(1-(tert-butyl)-4,4-dimethyl-1,4,5,6-tetrahydropyridine-3-carboxamide)] | 322 nm | 71962 M⁻¹ cm⁻¹ | 
CCC(=O)C1=CN(c2ccc(C(C)(C)C)cc2)CCC1(C)C [Compound 177, 1-(1-(4-(tert-butyl)phenyl)-4,4-dimethyl-1,4,5,6-tetrahydropyridin-3-yl)propan-1-one] | 329 nm | 31955 M⁻¹ cm⁻¹ | 
Cc1ccc(N2C=C(C(=O)Nc3ccc(C)c(NC(=O)C4=CN(C(C)(C)C)CCC4(C)C)c3)C(C)(C)CC2)cc1 [Compound 190, 1-(tert-butyl)-N-(5-(4,4-dimethyl-1-(p-tolyl)-1,4,5,6-tetrahydropyridine-3-carboxamido)-2-methylphenyl)-4,4-dimethyl-1,4,5,6-tetrahydropyridine-3-carboxamide] | 314 nm | 51743 M⁻¹ cm⁻¹ | 
C=CCCC(=O)C1=CN(CC(C)C)CCC1(C)C [drawing 46] |  |  | λmax (Table 1, covalently coupled compounds): 308 nm; Ε (1%, 1 cm) [2]: 1417; ε [2]: 35000 M⁻¹ cm⁻¹
CC(C)CN1C=C(C(=O)c2ccc(C(C)(C)C)cc2)C(C)(C)CC1 [drawing 51] |  |  | λmax (Table 2, compounds 11-13): 317 nm; Ε (1%, 1 cm) [3]: 581; ε [3]: 19000 M⁻¹ cm⁻¹
CC1(C)CCN(C(C)(C)C)C=C1C(=O)Nc1ccccc1 [Compound 179, 1-(tert-butyl)-4,4-dimethyl-N-phenyl-1,4,5,6-tetrahydropyridine-3-carboxamide] | 308 nm | 34834 M⁻¹ cm⁻¹ | ε value (unit inferred): 35000 M⁻¹ cm⁻¹
CC(C)CN1C=C(C(=O)C(C#N)=C(c2ccccc2)c2ccccc2)C(C)(C)CC1 [Compound 39] | 297 nm and 317 nm | 15750 M⁻¹ cm⁻¹ and 16150 M⁻¹ cm⁻¹ | 
COc1ccc(N2C=CC(C)(C)CC2)cc1 [drawing 126] |  |  | λmax (Table 8a, N-phenyl compounds): 275 nm
CC(C)CN1C=C(C(=O)/C=C/c2ccc(C(F)(F)F)cc2)C(C)(C)CC1 [Compound 33, (E)-1-(1-Isobutyl-4,4-dimethyl-1,4,5,6-tetrahydropyridin-3-yl)-3-(4-(trifluoromethyl)phenyl)prop-2-en-1-one] | 369 nm | 17000 M⁻¹ cm⁻¹ | 
CC1(C)C=CN(c2ccccc2)C=C1 [Compound 50, 4,4-dimethyl-1-phenyl-1,4-dihydropyridine] | 285 nm | 16000 M⁻¹ cm⁻¹ | 
Cc1ccc(N2C=CC(C)(C)C(C(=O)C(F)(F)F)=C2)cc1 [Compound 199, 1-(4,4-dimethyl-1-(p-tolyl)-1,4-dihydropyridin-3-yl)-2,2,2-trifluoroethanone] | 388 nm | 14911 M⁻¹ cm⁻¹ | 
CC1(C)CCN(C(C)(C)C)C=C1C(=O)Nc1ccc(Cc2ccc(NC(=O)C3=CN(C(C)(C)C)CCC3(C)C)cc2)cc1 [Compound 185, N,N′-(methylenebis(4,1-phenylene))bis(1-(tert-butyl)-4,4-dimethyl-1,4,5,6-tetrahydropyridine-3-carboxamide)] | 310 nm | 64589 M⁻¹ cm⁻¹ | 
CCC(=O)C1=CN(c2cccc3ccccc23)CCC1(C)C [Compound 178, 1-(4,4-dimethyl-1-(naphthalen-1-yl)-1,4,5,6-tetrahydropyridin-3-yl)propan-1-one] | 321 nm | 23247 M⁻¹ cm⁻¹ | 
CC(C)CN1C=C(C(=O)c2ccc(C(C)(C)C)cc2)C(C)(C)CC1 [Compound 11, (4-(tert-butyl)phenyl)(1-isobutyl-4,4-dimethyl-1,4,5,6-tetrahydropyridin-3-yl)methanone] | 317 nm | 19000 M⁻¹ cm⁻¹ | shift / increase in λmax (versus base enaminoketone or alkanoyl counterparts): approximately 11 nm
CC1(C)CCN(C(C)(C)C)C=C1C(=O)COc1ccccc1 [Compound 168, 1-(1-(tert-butyl)-4,4-dimethyl-1,4,5,6-tetrahydropyridin-3-yl)-2-phenoxyethanone] | 313 nm | 26154 M⁻¹ cm⁻¹ | 
CC(C)CN1C=C(C(=O)C(c2ccccc2)c2ccccc2)C(C)(C)CC1 [Compound 71, 1-(1-isobutyl-4,4-dimethyl-1,4,5,6-tetrahydropyridin-3-yl)-2,2-diphenylethanone] | 314 nm | 26000 M⁻¹ cm⁻¹ | 
CC(C)CN1C=C(C(=O)c2ccc(-c3ccccc3)cc2)C(C)(C)CC1 [drawing 86] |  |  | E (1%, 1 cm) (Table 6A): 509; ε (Table 6A): 18000 M⁻¹ cm⁻¹; λmax [4]: 320 nm
COc1ccc(C(=O)C2=CN(CC(C)C)CCC2(C)C)c(OC)c1 [drawing 91] |  |  | E (1%, 1 cm) (Table 6A): 286; ε (Table 6A): 9500 M⁻¹ cm⁻¹; λmax [4]: 313 nm
CC1(C)CCN(C(C)(C)C)C=C1C(=O)NCCCCCCNC(=O)C1=CN(C(C)(C)C)CCC1(C)C [Compound 181, N,N′-(hexane-1,6-diyl)bis(1-(tert-butyl)-4,4-dimethyl-1,4,5,6-tetrahydropyridine-3-carboxamide)] | 289 nm | 31072 M⁻¹ cm⁻¹ | 
C=C/C=C/CC(=O)C1=CN(CC(C)C)CCC1(C)C [drawing 109] |  |  | λmax (Table 7, unsaturated compounds): 311 nm; E (1%, 1 cm) [5]: 1053; ε [5]: 27500 M⁻¹ cm⁻¹
CCCCCCCC(=O)C1=CN(c2ccc(N(C)C)cc2)CCC1(C)C [Compound 175, 1-(1-(4-(dimethylamino)phenyl)-4,4-dimethyl-1,4,5,6-tetrahydropyridin-3-yl)octan-1-one] | 338 nm | 28040 M⁻¹ cm⁻¹ | 
CC(C)CN1C=C(C(=O)c2ccc(C(=O)C3=CN(CC(C)C)CCC3(C)C)cc2)C(C)(C)CC1 [drawing 88] |  |  | E (1%, 1 cm) (Table 6A): 547; ε (Table 6A): 20000 M⁻¹ cm⁻¹; λmax [4]: 320 nm
CC1(C)CCN(c2ccccc2)C=C1C(=O)c1ccc(Br)cc1 [Compound 49, (4-bromophenyl)(1-(phenyl)-4,4-dimethyl-1,4,5,6-tetrahydropyridin-3-yl)methanone] | 338 nm | 23300 M⁻¹ cm⁻¹ | 
CC1(C)CCN(c2ccc(C(C)(C)C)cc2)C=C1C(=O)C1c2ccccc2-c2ccccc21 [Compound 205, (1-(4-(tert-butyl)phenyl)-4,4-dimethyl-1,4,5,6-tetrahydropyridin-3-yl)(9H-fluoren-9-yl)methanone] | 339 nm | 30745 M⁻¹ cm⁻¹ | 
CC(C)CN1C=C(C(=O)/C=C/C=Cc2ccccc2)C(C)(C)CC1 [Compound 35, (2E, 4E/Z)-1-(1-isobutyl-4,4-dimethyl-1,4,5,6-tetrahydropyridin-3-yl)-5-phenylpenta-2,4-dien-1-one] | 318 nm and 370 nm | 14800 M⁻¹ cm⁻¹ and 13200 M⁻¹ cm⁻¹ | 

Now from value to molecule, other results behind:

UV λmax | ε (molar extinction coefficient) [1] | SMILES | further results
360 nm | 16000 M⁻¹ cm⁻¹ | CC(C)CN1C=C(C(=O)/C=C/c2ccccc2)C(C)(C)CC1 [Compound 31, (E)-1-(1-Isobutyl-4,4-dimethyl-1,4,5,6-tetrahydropyridin-3-yl)-3-phenylprop-2-en-1-one] | 
318 nm | 22500 M⁻¹ cm⁻¹ | CC(C)CN1C=C(C(=O)c2ccc(Br)cc2)C(C)(C)CC1 [Compound 16, (4-bromophenyl)(1-isobutyl-4,4-dimethyl-1,4,5,6-tetrahydropyridin-3-yl)methanone] | 
293 nm and 396 nm | 14250 M⁻¹ cm⁻¹ and 11150 M⁻¹ cm⁻¹ | COc1ccc(C(=O)CC(=O)C2=CN(CC(C)C)CCC2(C)C)cc1 [Compound 13, 1-(1-isobutyl-4,4-dimethyl-1,4,5,6-tetrahydropyridin-3-yl)-3-(4-methoxyphenyl)propane-1,3-dione] | 
352 nm | 18000 M⁻¹ cm⁻¹ | C=C/C=C/C(=O)C1=CN(CC(C)C)CCC1(C)C [Compound 38, (2E/Z) 1-(1-isobutyl-4,4-dimethyl-1,4,5,6-tetrahydropyridin-3-yl)penta-2,4-dien-1-one] | 
323 nm | 20000 M⁻¹ cm⁻¹ | CCC(=O)O/C(=C\C1=CC(C)(C)CCN1CC(C)C)CC [Compound 60, 1-(1-isobutyl-4,4-dimethyl-1,4,5,6-tetrahydropyridin-2-yl)but-1-en-2-yl propionate] | 
364 nm | 16150 M⁻¹ cm⁻¹ | COc1ccc(/C=C/C(=O)C2=CN(CC(C)C)CCC2(C)C)cc1 [Compound 34, (E)-1-(1-isobutyl-4,4-dimethyl-1,4,5,6-tetrahydropyridin-3-yl)-3-(4-methoxyphenyl)prop-2-en-1-one] | 
336 nm | 17000 M⁻¹ cm⁻¹ | CC(C)CN1C=C(C(=O)c2ccc(N(C)C)cc2)C(C)(C)CC1 [Compound 15, (4-(dimethylamino)phenyl)(1-isobutyl-4,4-dimethyl-1,4,5,6-tetrahydropyridin-3-yl)methanone] | 
331 nm | 20500 M⁻¹ cm⁻¹ | C=CC(=O)C1=CN(CC(C)C)CCC1(C)C [Compound 32, 1-(1-Isobutyl-4,4-dimethyl-1,4,5,6-tetrahydropyridin-3-yl)prop-2-en-1-one] | 
